This test has as its target T1, H^+ -K^+ -ATPase (Sus scrofa, UniProt P19156).
T1 construct: which was prepared from the stomach of swine; from tissue; host or cells: stomach of swine
Description: Inhibitory Effect Test for the Activity of H^+ -K^+ -ATPase. As to conditions: H+-K+-ATPase from the stomach of swine; preincubation pH 6.1, room temperature 30 min; reaction pH 7.4, 37° C. 30 min; read-out: IC50 (50% inhibition dosage). The format is biochemical. On the procedure: H^+ -K^+ -ATPase (hydrogen-potassium-activated adenosine triphosphatase) (protein content: 10 mcg) which was prepared from the stomach of swine was added to PIPES-tris[buffer PIPES-tris(hydroxymethyl)-2-amino-1,3-propanediol buffer (pH=6.1) containing 2 mM of piperazine-N,N'-bis(2-ethanesulfonic acid)], then the resulting mixture was let allowed to stand at room temperature.
Each of the test compounds was dissolved in dimethylformamide, and the dimethylformamide solution was added to the above-mentioned H^+ -K^+ -ATPase buffer solution so as to adjust the final concentration of the test compound to 1.0%. Each of thus prepared mixture was reacted at room temperature for 30 minutes.
Next, the above-mentioned reaction mixture was divided into two portions, and to the one portion thereof was added 1 ml of 75 mM PIPES-tris buffer solution (pH=7.4) (containing 4 mM of MgCl2, 4 mM of Na2 ATP and 20 mM of KCl), on the other hand, to another portion of the reaction mixture was added 1 ml of 75 mM PIPES-tris buffer solution (pH=7.4) (containing 4 mM of MgCl2 and 4 mM of Na2 ATP), respectively. Each of these two series of sample solutions was separately reacted at 37° C. for 30 minutes. Then to each of these reaction mixtures was added 0.3 ml of 40% trichloroacetic acid to terminate the reaction, and was subjected to centrifugal separation at 3,000 rpm for 10 minutes to obtain the supernatent. Next, the inorganic phosphoric acid formed in the reaction mixture was determined by a method according to the article by C. H. Fiske and Y. Subbarow: J. Biol. Chem., Vol. 66, pages 375-400, (1925). The difference of the value obtained by substracting the quantity of inorganic phosphoric acid determined by using PIPES-tris buffer solution without containing 20 mM of KCl from the quantity of inorganic phosphoric acid determined by using PIPES-tris buffer solution containing 20 mM of KCl, was converted into as activity value of enzyme with respect to the unit protein and unit time.
Inhibitory rate (%) of each of the test compounds was obtained from the activity value of the enzyme at the respective dosages in the test groups and those of obtained from the control group, then IC50 (50% inhibition dosage of each of the test compounds) was calculated from the inhibitory rate (%).

T1 sequence (P19156 2-1034 limits assumed): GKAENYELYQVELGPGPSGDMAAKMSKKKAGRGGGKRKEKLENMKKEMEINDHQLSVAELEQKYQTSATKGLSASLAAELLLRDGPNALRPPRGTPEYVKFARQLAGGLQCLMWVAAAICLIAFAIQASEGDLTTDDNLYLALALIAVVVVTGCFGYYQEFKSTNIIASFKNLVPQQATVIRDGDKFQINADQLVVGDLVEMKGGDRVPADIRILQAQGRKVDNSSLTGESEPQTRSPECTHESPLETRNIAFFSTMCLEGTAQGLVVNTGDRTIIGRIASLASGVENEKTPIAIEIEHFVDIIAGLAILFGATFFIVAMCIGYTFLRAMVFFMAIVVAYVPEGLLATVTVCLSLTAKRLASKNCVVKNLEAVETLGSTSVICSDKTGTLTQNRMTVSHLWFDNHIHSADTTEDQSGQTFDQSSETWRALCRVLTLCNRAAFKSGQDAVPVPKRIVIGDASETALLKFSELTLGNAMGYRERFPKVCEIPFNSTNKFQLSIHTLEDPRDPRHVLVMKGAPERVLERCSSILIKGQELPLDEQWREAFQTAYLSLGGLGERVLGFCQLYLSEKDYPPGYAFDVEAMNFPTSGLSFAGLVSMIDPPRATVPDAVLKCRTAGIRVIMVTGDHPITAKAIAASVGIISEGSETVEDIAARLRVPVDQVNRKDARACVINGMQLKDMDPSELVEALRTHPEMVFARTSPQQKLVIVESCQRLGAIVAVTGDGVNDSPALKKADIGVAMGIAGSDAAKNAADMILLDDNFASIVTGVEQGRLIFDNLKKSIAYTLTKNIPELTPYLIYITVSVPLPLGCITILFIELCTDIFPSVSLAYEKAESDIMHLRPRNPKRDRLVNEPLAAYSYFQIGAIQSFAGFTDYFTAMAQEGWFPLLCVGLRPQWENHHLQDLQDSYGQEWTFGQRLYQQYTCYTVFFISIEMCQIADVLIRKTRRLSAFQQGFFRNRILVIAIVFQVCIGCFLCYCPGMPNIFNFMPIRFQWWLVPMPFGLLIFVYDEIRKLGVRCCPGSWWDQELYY
T1 sequence (P18434 whole entry partner): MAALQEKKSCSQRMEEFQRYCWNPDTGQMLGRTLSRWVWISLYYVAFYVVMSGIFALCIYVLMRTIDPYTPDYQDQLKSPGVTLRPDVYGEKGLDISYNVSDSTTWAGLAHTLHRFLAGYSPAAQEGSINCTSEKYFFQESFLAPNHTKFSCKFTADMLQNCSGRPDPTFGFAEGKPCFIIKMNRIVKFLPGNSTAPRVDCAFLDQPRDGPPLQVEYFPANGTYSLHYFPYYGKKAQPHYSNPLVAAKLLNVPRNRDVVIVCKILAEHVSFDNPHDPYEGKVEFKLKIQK

The IC50 is the point on the concentration scale where inhibition reaches its midpoint. As for `C=CCOc1c(C)cnc2c1CCCC2[S+]([O-])c1nc2ccccc2[nH]1` (centres unmarked) [Test compound 1, 4-Allyloxy-8-(2-benzimidazolyl)sulfinyl-3-methyl-5,6,7,8-tetrahydroquinoline], the IC50 turned out to be 740 nM.
Take `C=CCOc1c(C)cnc2c1CCCC2[S+]([O-])c1nc2cc(F)c(F)cc2[nH]1` (centres unmarked) [Test compound 2, 4-Allyloxy-8-(5,6-difluoro-2-benzimidazolyl)-sulfinyl-3-methyl-5,6,7,8-tetrahydroquinoline]: the IC50 turned out to be 1800 nM.
Regarding `C#CCOc1c(C)cnc2c1CCCC2[S+]([O-])c1nc2ccc(F)cc2[nH]1` (centres unmarked) [Test compound 3, 8-(5-Fluoro-2-benzimidazolyl)sulfinyl-3-methyl-4-propargyloxy-5,6,7,8-tetrahydroquinoline], the IC50 was determined as 1100 nM.
`C=CCOc1c(C)cnc2c1CCCC2[S+]([O-])c1nc2cc(C)c(C)cc2[nH]1` (centres unmarked) [Test compound 4, 4-Allyloxy-8-(5,6-dimethyl-2-benzimidazolyl)-sulfinyl-3-methyl-5,6,7,8-tetrahydroquinoline]: the half-maximal inhibitory concentration (IC50) is 610 nM.
For `C=CCOc1c(C)cnc2c1CCCC2[S+]([O-])c1nc2cc(Cl)c(Cl)cc2[nH]1` (centres unmarked) [Test compound 5, 4-Allyloxy-8-(5,6-dichloro-2-benzimidazolyl)-sulfinyl-3-methyl-5,6,7,8-tetrahydroquinoline], the half-inhibitory concentration (IC50) came to 310 nM.
For `C#CCOc1c(C)cnc2c1CCCC2[S+]([O-])c1nc2cc(C)c(C)cc2[nH]1` (centres unmarked) [Test compound 6, 8-(5,6-Dimethyl-2-benzimidazolyl)sulfinyl-3-methyl-4-propargyloxy-5,6,7,8-tetrahydroquinoline], the IC50 is 460 nM.
For the compound `C#CCOc1c(C)cnc2c1CCCC2[S+]([O-])c1nc2ccccc2[nH]1` (centres unmarked) [Test compound 7, 8-(2-Benzimidazolyl)sulfinyl-3-methyl-4-propargyloxy-5,6,7,8-tetrahydroquinoline], the half-inhibitory concentration (IC50) amounted to 1200 nM.
Regarding `C#CCOc1c(C)cnc2c1CCCC2[S+]([O-])c1nc2cc(Cl)c(Cl)cc2[nH]1` (centres unmarked) [Test compound 8, 8-(5,6-Dichloro-2-benzimidazolyl)sulfinyl-3-methyl-4-propargyloxy-5,6,7,8-tetrahydroquinoline], the IC50 stood at 290 nM.
`COCCOc1c(C)cnc2c1CCCC2[S+]([O-])c1nc2ccccc2[nH]1` (centres unmarked) [Test compound 9, 8-(2-Benzimidazolyl)sulfinyl-4-(2-methoxyethoxy)-3-methyl-5,6,7,8-tetrahydroquinoline]: the IC50 is 840 nM.
Consider `COCCOc1c(C)cnc2c1CCCC2[S+]([O-])c1nc2ccc(F)cc2[nH]1` (centres unmarked) [Test compound 10, 8-(5-Fluoro-2-benzimidazolyl)sulfinyl-4-(2-methoxyethoxy)-3-methyl-5,6,7,8-tetrahydroquinoline], for which the IC50 was determined as 870 nM.
For the compound `C=CCOc1c(C)cnc2c1CCCC2[S+]([O-])c1nc2ccc(F)cc2[nH]1` (centres unmarked) [Test compound 11, 4-Allyloxy-8-(5-fluoro-2-benzimidazolyl)-sulfinyl-3-methyl-5,6,7,8-tetrahydroquinoline], the IC50 stood at 730 nM.
In the case of `COc1ccc2nc([S+]([O-])C3CCCc4c(C)ccnc43)[nH]c2c1` (centres unmarked) [Test compound 13, 4-Methyl-8-(5-methoxy-2-benzimidazolyl)-sulfinyl-5,6,7,8-tetrahydroquinoline], the IC50 is 1100 nM.
Under `COc1ccc2nc([S+]([O-])C3CCCc4ccc(C)nc43)[nH]c2c1` (centres unmarked) [Test compound 14, 2-Methyl-8-(5-methoxy-2-benzimidazolyl)-sulfinyl-5,6,7,8-tetrahydroquinoline] stands 1500 nM.
Consider `Cc1cnc2c(c1)CCCC2[S+]([O-])c1nc2ccccc2[nH]1` (centres unmarked) [Test compound 15, 3-Methyl-8-(2-benzimidazolyl)sulfinyl-5,6,7,8-tetrahydroquinoline], for which the IC50 came out at 1800 nM.
On to `Cc1cnc2c(c1)CCCC2[S+]([O-])c1nc2ccc(C)cc2[nH]1` (centres unmarked) [Test compound 16, 3-Methyl-8-(5-methyl-2-benzimidazolyl)-sulfinyl-5,6,7,8-tetrahydroquinolin], for which the IC50 came to 1100 nM.
Take `CC(=O)c1ccc2nc([S+]([O-])C3CCCc4cc(C)cnc43)[nH]c2c1` (centres unmarked) [Test compound 18, 3-Methyl-8-(5-acetyl-2-benzimidazolyl)-sulfinyl-5,6,7,8-tetrahydroquinoline]: the IC50 was 3200 nM.
On to `COc1cc2nc([S+]([O-])C3CCCc4cc(C)cnc43)[nH]c2cc1OC` (centres unmarked) [Test compound 19, 3-Methyl-8-(5,6-dimethoxy-2-benzimidazolyl)-sulfinyl-5,6,7,8-tetrahydroquinoline], for which the IC50 stood at 3100 nM.
On to `COc1ccc2nc([S+]([O-])C3CCCc4ccc(Cl)nc43)[nH]c2c1` (centres unmarked) [Test compound 21, 2-Chloro-8-(5-methoxy-2-benzimidazolyl)-sulfinyl-5,6,7,8-tetrahydroquinoline], for which the IC50 was determined as 2700 nM.
The same measure for `COc1ccc2nc([S+]([O-])C3CCCc4cc(C)c(Cl)nc43)[nH]c2c1` (centres unmarked) [Test compound 22, 2-Chloro-3-methyl-8-(5-methoxy-2-benzimidazolyl)sulfinyl-5,6,7,8-tetrahydroquinoline]: 2100 nM; for `COc1ccc2nc([S+]([O-])C3CCCc4cccnc43)[nH]c2c1` (centres unmarked) [Test compound 23, 8-(5-Methoxy-2-benzimidazolyl)sulfinyl-5,6,7,8-tetrahydroquinoline]: 1900 nM; for `COc1ccc2nc([S+]([O-])C3CCCc4c(OC)ccnc43)[nH]c2c1` (centres unmarked) [Test compound 24, 4-Methoxy-8-(5-methoxy-2-benzimidazolyl)-sulfinyl-5,6,7,8-tetrahydroquinoline]: 7600 nM.
Under `COc1ccnc2c1CCCC2[S+]([O-])c1nc2ccc(C(F)(F)F)cc2[nH]1` (centres unmarked) [Test compound 25, 4-Methoxy-8-(5-trifluoromethyl-2-benzimidazolyl)sulfinyl-5,6,7,8-tetrahydroquinoline] stands 2900 nM.
Consider `Cc1cnc2c(c1)CCCC2[S+]([O-])c1nc2ccc(C(F)(F)F)cc2[nH]1` (centres unmarked) [Test compound 27, 3-Methyl-8-(5-trifluoromethyl-2-benzimidazolyl)sulfinyl-5,6,7,8-tetrahydroquinoline], for which the IC50 stood at 1500 nM.
Take `[O-][S+](c1nc2ccc(C(F)(F)F)cc2[nH]1)C1CCCc2cccnc21` (centres unmarked) [Test compound 28, 8-(5-Trifluoromethyl-2-benzimidazolyl)-sulfinyl-5,6,7,8-tetrahydroquinoline]: the IC50 was 1900 nM.
For the compound `COc1ccc2nc([S+]([O-])C3CCCc4ccc(O)nc43)[nH]c2c1` (centres unmarked) [Test compound 29, 2-Hydroxy-8-(5-methoxy-2-benzimidazolyl)-sulfinyl-5,6,7,8-tetrahydroquinoline], the IC50 came out at 2300 nM.
`COc1cc2nc([S+]([O-])C3CCCc4cccnc43)[nH]c2cc1OC` (centres unmarked) [Test compound 30, 8-(5,6-Dimethoxy-2-benzimidazolyl)sulfinyl-5,6,7,8-tetrahydroquinoline]: the IC50 was 930 nM.
The same measure for `O=[N+]([O-])c1ccc2nc([S+]([O-])C3CCCc4cccnc43)[nH]c2c1` (centres unmarked) [Test compound 31, 8-(5-Nitro-2-benzimidazolyl)sulfinyl-5,6,7,8-tetrahydroquinoline]: 2900 nM; for `Cc1cccc2nc([S+]([O-])C3CCCc4cccnc43)[nH]c12` (centres unmarked) [Test compound 33, 8-(4-Methyl-2-benzimidazolyl)sulfinyl-5,6,7,8-tetrahydroquinoline]: 2600 nM.
Under `COc1c(C)cnc2c1CCCC2[S+]([O-])c1nc2ccc(F)cc2[nH]1` (centres unmarked) [Test compound 34, 3-Methyl-4-methoxy-8-(5-fluoro-2-benzimidazolyl)sulfinyl-5,6,7,8-tetrahydroquinoline] stands 220 nM; under `COc1c(C)cnc2c1CCCC2[S+]([O-])c1nc2ccccc2[nH]1` (centres unmarked) [Test compound 35, 3-Methyl-4-methoxy-8-(2-benzimidazolyl)-sulfinyl-5,6,7,8-tetrahydroquinoline], 250 nM.
Consider `[O-][S+](c1nc2cc(Cl)c(Cl)cc2[nH]1)C1CCCc2cccnc21` (centres unmarked) [Test compound 36, 8-(5,6-Dichloro-2-benzimidazolyl)sulfinyl-5,6,7,8-tetrahydroquinoline], for which the IC50 was 700 nM.
As to `CCOc1cc2[nH]c([S+]([O-])C3CCCc4cccnc43)nc2cc1F` (centres unmarked) [Test compound 37, 8-(5-Ethoxy-6-fluoro-2-benzimidazolyl)-sulfinyl-5,6,7,8-tetrahydroquinoline], the IC50 is 3400 nM.
